In US20070099839A1, “Inhibitors of cell migration” (CIT CANCER TARGETING TECHNOLOGIES, priority 2001, published 2007):
No end group written: not given here.

B1: ICAM-1: intracellular adhesion molecule 1, β2 integrin ligand used as competitor (protein, UniProt P05362 28-532, looked up)
Intercellular adhesion …: QTSVSPSKVILPRGGSVLVTCSTSCDQPKLLGIETPLPKKELLLPGNNRKVYELSNVQEDSQPMCYSNCPDGQSTAKTFLTVYWTPERVELAPLPSWQPVGKNLTLRCQVEGGAPRANLTVVLLRGEKELKREPAVGEPAEVTTTVLVRRDHHGANFSCRTELDLRPQGLELFENTSAPYQLQTFVLPATPPQLVSPRVLEVDTQGTVVCSLDGLFPVSEAQVHLALGDQRLNPTVTYGNDSFSAKASVSVTAEDEGTQRLTCAVILGNQSQETLQTVTIYSFPAPNVILTKPEVSEGTEVTVKCEAHPRAKVTLNGVPAQPLGPRAQLLLKATPEDNGRSFSCSATLEVAGQLIHKNQTRELRVLYGPRLDERDCPGNWTWPENSQQTPMCQAWGNPLPELKCLKDGTFPLPIGESVTVTRDLEGTYLCRARSTQGEVTRKVTVNVLSPRYEIVIITVVAAAVIMGTAGLSTYLYNRQRKIKKYRLQQAQKGTPMKPNTQATPP

What was measured:
αM I domain = target: T1, αM I domain (Homo sapiens, UniProt P11215); experiment: Binding of proMMP-9 to immobilized GST-αM I domain in the presence of competitor peptides (detected with GE-213 antibody); conditions: FIG. 4C
T1 construct: GST-αM and GST-αL I domain fusion proteins were expressed and purified as described previously (30); made in house
Description: (4C) Binding of proMMP-9 to the immobilized GST-αM I domain was studied in the presence of each peptide at the concentrations indicated. The binding was determined with the anti-MMP-9 antibody GE-213.
(§1) ICAM-1, fibrinogen, proMMP-8, proMMP-9 or the recombinant domains (0.5 μg/well in PBS) were coated on plastic 96-well plates at +4° C. for 16 h and the wells were blocked with 3% bovine serum albumin (BSA) in PBS for 2 h at room temperature. Binding of the GST-αM I domain was determined essentially as described in the first priority application. In the reverse assay, GST-αM I domain was coated and binding of proMMP-9 was determined using the GE-213 antibody. Competitor peptides were preincubated with the αM I-domain for 20 minutes before the experiment.

proMMP-9 (Homo sapiens) = target: T2, proMMP-9 (Homo sapiens); experiment: Binding of GST-αM I domain to immobilised proMMP-9 with competitors; conditions: competitors 50 μM; FIG. 4D
T2 construct: GST-αM and GST-αL I domain fusion proteins were expressed and purified as described previously (30); made in house
Description: (§2) (4D) Binding of GST-αM I domain to the immobilised proMMP-8, proMMP-9, ICAM-1, and fibrinogen was studied with ICAM-1, DDGW or KKGW (50 μM) as competitors. In control wells, GST was added instead of GST-αM I domain. The experiment was repeated three times with similar results.
as §1

proMMP-8 (Homo sapiens) = target: T3, proMMP-8 (Homo sapiens); experiment: Binding of GST-αM I domain to immobilised proMMP-8 with competitors; conditions: competitors 50 μM; FIG. 4D
T3 construct: GST-αM and GST-αL I domain fusion proteins were expressed and purified as described previously (30); made in house
Description: as §2, §1

[1] = system: intraperitoneal accumulation of PMNs; experiment: Mouse model of thioglycolate-induced peritonitis; format: in vivo; conditions: for prevention of thioglycolate-induced increase in gelatinase levels in intraperitoneal fluid (zymography): DDGW 0.1, HFDDDE 0.2, DFEDHD 0.2 mg per mouse intravenously, FIG. 7D; for inhibition of intraperitoneal accumulation of PMNs: intravenous tail injection, 3 h after thioglycolate, FIG. 7A
Description: (7A) Mice were injected with thioglycolate or PBS intraperitoneally. The peptides were applied intravenuously at the amounts indicated (A). After 3 h, the intraperitoneal leukocytes were harvested and counted. […] (*) indicates statistical significant difference (p<0.001). The experiment was repeated at least 3 times. The infiltrated neutrophils of mice treated with thioglycolate (7B) or PBS (7C) were stained with anti-MMP-9 and anti-αM, as described in the FIG. 3 legend. Fluorescence was studied by confocal microscopy. Bars: 9.1 μm and […], respectively.
(7D) Gelatinolytic activity of the supernatants from the peritoneal cavities of mice collected as in (7A). Lanes 1-4: samples are from thioglycolate-treated mice; lane 5: a sample from PBS-treated mouse. DDGW, HFDDDE, and DFEDHD were injected intravenously at doses of 0.1, 0.2 and 0.2 mg per mouse. The arrows show proMMP-9 dimer, proMMP-9 and proMMP-2. The experiment was repeated three times with similar results.
Balb/c mice at the age of 31-32 weeks were injected intraperitoneally with 3% (w/v) thioglycolate in sterile saline (32). Peptides ([…] in 100 μl) were introduced intravenously through the tail vein. Animals were euthanized after 3 h and the peritoneal cells were harvested by injecting 10 ml of sterile PBS through the peritoneal wall. Red blood cells present in the lavage fluid were removed by hypotonic lysis. Cells were centrifuged and resuspended in 1 ml of sterile 0.25% BSA/Krebs-Ringer. The supernatants were also collected and analysed by gelatin zymography. The number of neutrophils was determined following staining with 0.1% crystal violet and using a light microscope equipped with a ×100 objective. For immunofluorescence staining, cells were allowed to bind to poly-L-lysine coated cover slips, fixed with 2.5% paraformaldehyde in PBS at +4° C. for 30 min followed by several washings. The Fc receptors were blocked in the presence of 20% of rabbit serum and 3% BSA in PBS. The cells were then incubated with anti-MMP-9 polyclonal and αM monoclonal (MCA74) antibodies for 30 min. After washing with PBS, the secondary antibodies, rhodamine (TRITC)-conjugated anti-rabbit or FITC-conjugated anti-rat (Fab′)2 were incubated for another 30 min. The samples were examined with a confocal microscope. The animal studies were approved by an ethical committee of Helsinki University.

PMNs [2] = experiment: PMN transendothelial migration through HMEC monolayer; format: cell-based, human; conditions: chemotaxis with C5a or TNF-α, peptides 200 μM, antibodies 20 μg/ml, FIG. 6B
Description: (§3) FIG. 6A to 6D. Blockage of PMN and THP-1 cell migration in vitro by gelatinase and β2 integrin inhibitors. PMNs (1×10^5 in 100 μl) were applied on the LLG-C4-GST or GST coated surface (6A) or HMEC monolayer (6B) in the absence or presence of peptides (200 μM) or antibodies (20 μg/ml) as indicated. PMNs were stimulated with 20 nM PMA (6A), HMECs with […] or 10 ng/ml TNFα or left untreated (6B). THP-1 cells (5×10^4 in 100 μl) were stimulated with 50 nM PMA and applied on the coated surfaces together with each peptide (200 μM) (6C). The cells migrated through transwell filters were stained and counted microscopically. All experiments were repeated at least twice. (6D) Phorbol ester-activated THP-1 cells (5×10^4 in 100 μl) were incubated for 16 h at +37° C. in the presence or absence of peptides as indicated. The conditioned medium was analyzed by gelatin zymography.
(§4) Cell migration was conducted using Costar 24-transwell migration chambers with a 3 μm pore size for PMNs and 8 μm for THP-1 cells. To study β2 integrin-directed migration, the chamber membrane was coated on both sides with LLG-C4-GST integrin ligand (40 μg/ml) or GST as a control and blocked with 10% serum-containing medium (16). […] The non-migrated cells were removed from the upper surface by a cotton swab and the cells that had traversed the filters were stained with crystal violet and counted.

THP-1 cells [3] = experiment: THP-1 cell migration through LLG-C4-GST coated transwell filters; format: cell-based, human; conditions: LLG-C4GST coated filters; 50 nM PMA; peptides 200 μM; 16 h; FIG. 6C
Description: as §3, §4

THP-1 cells [4] = conditions: FI 2003 0923; cited from earlier work
PMNs [5] = experiment: PMN transwell migration on LLG-C4-GST coated filters; format: cell-based, human; conditions: LLG-C4-GST substratum; peptides 200 μM, antibodies 20 μg/ml; 20 nM PMA; FIG. 6A
Description: as §3, §4

[6] = system: leukocyte primary adhesion to ICAM-1, fibrinogen or LLG-C4GST; experiment: Leukocyte primary adhesion to ICAM-1, fibrinogen or LLG-C4GST; format: cell-based
PMNs [7] = experiment: PMN adhesion to immobilized proMMP-9 (phosphatase assay); format: cell-based, human; conditions: PMA-stimulated PMNs; peptide 50 μM, antibody 20 μg/ml; FIG. 5C
Description: FIG. 5A to 5D. Recognition of recombinant MMP-9 domains by αMβ2 integrin-expressing cells. The studied cells were PMNs (5A, 5B, 5C), αMβ2 L-cell transfectants (5D), non-transfectants (5D), and LAD-1 cells (5D). PMNs were in resting state or stimulated with PMA (5A, 5C) or C5a or TNFα (5B) before the binding experiment to proMMP-9 or its domains. Cells were also pretreated with each peptide (50 μM), antibody (20 μg/ml) or the αM I domain as indicated. Unbound cells were removed by washing and the number of adherent cells was quantitated by a phosphatase assay. The experiment was repeated three times with similar results.
MMP-9 proteins (200 nM in PBS) were coated at +4° C. for 16 h and the microtiter wells were blocked with 3% BSA in PBS for 1 h at room temperature. The αMβ2-integrin L-cell transfectants and PMNs (1×10^5 cells/well) were suspended in RPMI medium supplemented with 2 mM MgCl2 and 0.1% BSA and activated with PMA (20 nM) for 20 min, or with C5a (50 nM) or TNF-α (10 nM) for 4 h at +37° C. The L926 wild type and LAD-1 cells were used as controls. The cells were treated with the indicated antibody (20 μg/ml) or peptide (50 μM) at +37° C. for 30 min, washed twice with serum-free medium and incubated in the microtiter wells at +37° C. for 30 min. The wells were washed with PBS, and the number of adherent cells was quantitated by a phosphatase assay (25).

MMP-9 catalytic domain = experiment: Binding to the MMP-9 catalytic domain (unpublished results)
THP-1 cells [8] = experiment: Effect of peptides on gelatinase release from THP-1 cells (gelatin zymography); format: cell-based, human; conditions: phorbol ester-activated cells; peptides 200 μM; 16 h; FIG. 6D
Description: as §3
THP-1 cells (50 000/100 μl) were incubated in serum-free RPMI for 16 h in the presence or absence of peptides (200 μM) as described in the text The supernatants from THP-1 cells and mouse intraperitoneal fluid were analysed by gelatin zymography. Gelatinolytic activity was quantified by densitometric scanning.

T2 sequence (P11215 150-328 limits assumed): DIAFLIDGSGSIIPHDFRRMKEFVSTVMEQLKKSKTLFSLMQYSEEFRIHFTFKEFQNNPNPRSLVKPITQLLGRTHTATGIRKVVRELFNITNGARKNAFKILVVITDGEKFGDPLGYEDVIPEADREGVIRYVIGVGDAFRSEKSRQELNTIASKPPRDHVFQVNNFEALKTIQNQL
T1 sequence (P11215 150-328 limits assumed): as above
T3 sequence (P11215 150-328 limits assumed): as above
Chain of MMP-9 catalytic domain (P14780 107-444 limits assumed): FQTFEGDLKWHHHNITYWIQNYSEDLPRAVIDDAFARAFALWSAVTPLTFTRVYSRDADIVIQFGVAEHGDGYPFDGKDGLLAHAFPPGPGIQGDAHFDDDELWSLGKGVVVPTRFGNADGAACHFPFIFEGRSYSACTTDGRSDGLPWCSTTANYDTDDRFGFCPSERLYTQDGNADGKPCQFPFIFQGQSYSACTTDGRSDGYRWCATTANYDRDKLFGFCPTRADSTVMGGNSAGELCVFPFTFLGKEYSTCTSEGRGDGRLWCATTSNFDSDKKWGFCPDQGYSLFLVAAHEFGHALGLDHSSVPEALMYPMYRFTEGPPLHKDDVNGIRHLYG

| Molecule | inhibition of proMMP-9 binding to the αM I domain (in words) (αM I domain) | competition with αM I domain binding to proMMP-9 (proMMP-9 (Homo sapiens)) | competition with αM I domain binding to proMMP-8 (proMMP-8 (Homo sapiens)) | inhibition of intraperitoneal accumulation of PMNs [1] | inhibition of PMN adherence on proMMP-9 (PMNs [7]) | also measured |
| --- | --- | --- | --- | --- | --- | --- |
| ADGACILWMDDGWCGAAG | equally potent | inhibitable | inhibitable | inhibited | inhibited | activity on intraperitoneal PMN accumulation ([1]; 5 μg given per mouse, intravenous): active; prevention of thioglycolate-induced increase in gelatinase levels in intraperitoneal fluid (zymography) [1]: prevented the increase; effective dose ([1]; corresponding to 5 μg given per mouse): 0.1 mg/kg mouse tissue; inhibition of PMN transendothelial migration (PMNs [2]): inhibition; inhibition of THP-1 migration (THP-1 cells [3]): inhibited; release of proMMP-9 from THP-1 cells (previous studies) (THP-1 cells [4]): can release proMMP-9; inhibition of migration of PMA-stimulated PMNs (PMNs [5]): worked similarly; inhibition of leukocyte primary adhesion to ICAM-1, fibrinogen or LLG-C4GST [6]: unable to inhibit |
| ADGACILWMKKGWCGAAG [control peptide for DDGW] | without effect |  |  | no effect | no effect |  |
| CTITHWGFTLC [CTT] |  |  |  |  | inhibited | inhibition of PMN transendothelial migration (PMNs [2]): inhibition; inhibition of THP-1 migration (THP-1 cells [3]): inhibited; binding to the MMP-9 catalytic domain (MMP-9 catalytic domain): binds; inhibition of migration of PMA-stimulated PMNs (PMNs [5]): worked similarly |
| DFEDHD | inactive |  |  | no effect | no effect | prevention of thioglycolate-induced increase in gelatinase levels in intraperitoneal fluid (zymography) [1]: not; release of proMMP-9 from THP-1 cells (THP-1 cells [8]): did not induce |
| HFDDDE [HFDDDE] |  |  |  |  |  | IC50 (αM I domain; read-out: inhibition of proMMP-9 binding to the αM I domain, IC50): 20 µM |
| fibrinogen |  | did not compete | did not compete |  |  |  |
| B1 |  | did not compete | did not compete |  |  |  |
